From patent US20060069123A1, “Substituted dipiperidine CCR2 antagonists” (priority 2004, published 2006)
Like-named read-outs stand apart in the source and are kept apart here.

Legend:
THP-1 cells = assay: MCP-1 Induced Chemotaxis in THP-1 Cells; type: cell-based; settings: Homo sapiens, THP-1 cells, MCP-1 0.01 μg/mL, 3 hours, read-out: Inhibition of MCP-1 Induced Chemotaxis IC50
Procedure: MCP-1 Induced Chemotaxis in THP-1 Cells
MCP-1 induced chemotaxis was run in a 24-well chemotaxis chamber. MCP-1 (0.01 μg/mL) was added to the lower chamber and 100 μL of THP-1 cells (1×10^7 cell/mL) was added to the top chamber. Varying concentrations of test compound were added to the top and bottom chambers. Cells were allowed to chemotax for 3 hours at 37° C. and 5% CO2. An aliquot of the cells that had migrated to the bottom chamber was taken and counted then compared to vehicle.

CCR2 = biological target: T1, CCR2 (Homo sapiens, UniProt P41597)
T1 sequence (P41597 1-360 isoform P41597-2): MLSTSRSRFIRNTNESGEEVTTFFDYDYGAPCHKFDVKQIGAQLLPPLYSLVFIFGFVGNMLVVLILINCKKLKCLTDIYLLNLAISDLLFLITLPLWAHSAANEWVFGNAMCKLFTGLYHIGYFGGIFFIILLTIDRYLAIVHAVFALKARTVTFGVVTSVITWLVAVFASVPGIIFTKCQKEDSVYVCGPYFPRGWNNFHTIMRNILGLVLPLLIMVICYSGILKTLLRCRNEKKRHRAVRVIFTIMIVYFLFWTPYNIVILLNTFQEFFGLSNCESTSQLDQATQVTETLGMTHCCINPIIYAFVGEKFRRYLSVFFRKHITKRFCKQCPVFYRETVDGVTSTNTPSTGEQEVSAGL

SMILES | IC50 (THP-1 cells) [µM] | IC50 (CCR2) [µM] | IC50 (THP-1 cells; THP-1, 3 h) [µM]
COc1ccc(C2CCN(C(C(=O)O)C3CCN(C(=O)/C=C/c4cc(F)cc(F)c4)CC3)CC2)cc1 (stereo not drawn) [Cpd 2, {1-[(2E)-3-(3,5-difluoro-phenyl)-acryloyl]-piperidin-4-yl}-[4-(4-methoxy-phenyl)-piperidin-1-yl]-acetic acid] | 1.81 | 1.83 | –
O=C(O)C(C1CCN(C(=O)/C=C/c2cc(F)cc(F)c2)CC1)N1CCC(c2c[nH]c3ccc(O)cc23)CC1 (stereo not drawn) [Cpd 16, {1-[(2E)-3-(3,5-difluoro-phenyl)-acryloyl]-piperidin-4-yl}-[4-(5-hydroxy-1H-indol-3-yl)-piperidin-1-yl]-acetic acid] | 0.02 | – | –
CC(=O)Nc1ccc2[nH]cc(C3CCN(C(C(=O)O)C4CCN(C(=O)/C=C/c5cc(F)c(F)c(F)c5)CC4)CC3)c2c1 (stereo not drawn) [Cpd 17, [4-(5-acetylamino-1H-indol-3-yl)-piperidin-1-yl]-{1-[(2E)-3-(3,4,5-trifluoro-phenyl)-acryloyl]-piperidin-4-yl}-acetic acid] | 0.02 | 0.16 | –
O=C(O)C(C1CCN(C(=O)/C=C/c2cc(F)cc(F)c2)CC1)N1CCC(c2c[nH]c3cc(Cl)ccc23)CC1 (stereo not drawn) [Cpd 25, [4-(6-chloro-1H-indol-3-yl)-piperidin-1-yl]-{1-[(2E)-3-(3,5-difluoro-phenyl)-acryloyl]-piperidin-4-yl}-acetic acid] | 0.01 | – | –
COc1ccc2[nH]cc(C3CCN(C(C(=O)O)C4CCN(C(=O)/C=C/c5cc(F)cc(F)c5)CC4)CC3)c2c1 (stereo not drawn) [Cpd 26, {1-[(2E)-3-(3,5-difluoro-phenyl)-acryloyl]-piperidin-4-yl}-[4-(5-methoxy-1H-indol-3-yl)-piperidin-1-yl]-acetic acid] | 0.03 | – | –
O=C(O)C(C1CCN(C(=O)Nc2cc(F)cc(F)c2)CC1)N1CCC(c2c[nH]c3ccccc23)CC1 (stereo not drawn) [Cpd 28, [1-(3,5-difluoro-phenylcarbamoyl)-piperidin-4-yl]-[4-(1H-indol-3-yl)-piperidin-1-yl]-acetic acid] | 0.43 | 0.1 | –
O=C(O)C(C1CCN(C(=O)/C=C/c2ccc(Cl)cc2)CC1)N1CCC(c2c[nH]c3ccccc23)CC1 (stereo not drawn) [Cpd 34, {1-[(2E)-3-(4-chloro-phenyl)-acryloyl]-piperidin-4-yl}-[4-(1H-indol-3-yl)-piperidin-1-yl]-acetic acid] | 0.006 | 0.01 | –
O=C(O)C(C1CCN(C(=O)/C=C/c2cccc(C(F)(F)F)c2)CC1)N1CCC(c2c[nH]c3ccccc23)CC1 (stereo not drawn) [Cpd 35, [4-(1H-indol-3-yl)-piperidin-1-yl]-{1-[(2E)-3-(3-trifluoromethyl-phenyl)-acryloyl]-piperidin-4-yl}-acetic acid] | 0.03 | 0.008 | –
O=C(O)C(C1CCN(C(=O)Nc2ccc(F)c(F)c2)CC1)N1CCC(c2c[nH]c3ccccc23)CC1 (stereo not drawn) [Cpd 40, [1-(3,4-difluoro-phenylcarbamoyl)-piperidin-4-yl]-[4-(1H-indol-3-yl)-piperidin-1-yl]-acetic acid] | 0.03 | – | –
COc1cccc2[nH]cc(C3CCN(C(C(=O)O)C4CCN(C(=O)/C=C/c5cc(F)cc(F)c5)CC4)CC3)c12 (stereo not drawn) [Cpd 41, {1-[(2E)-3-(3,5-difluoro-phenyl)-acryloyl]-piperidin-4-yl}-[4-(4-methoxy-1H-indol-3-yl)-piperidin-1-yl]-acetic acid] | 0.04 | 0.014 | –
O=C(O)C(C1CCN(C(=O)Nc2ccc(F)c(Cl)c2)CC1)N1CCC(c2c[nH]c3ccccc23)CC1 (stereo not drawn) [Cpd 48, [1-(3-chloro-4-fluoro-phenylcarbamoyl)-piperidin-4-yl]-[4-(1H-indol-3-yl)-piperidin-1-yl]-acetic acid] | 0.04 | 0.03 | –
Cc1ccc(NC(=O)N2CCC(C(C(=O)O)N3CCC(c4c[nH]c5ccccc45)CC3)CC2)cc1Cl (stereo not drawn) [Cpd 49, [1-(3-chloro-4-methyl-phenylcarbamoyl)-piperidin-4-yl]-[4-(1H-indol-3-yl)-piperidin-1-yl]-acetic acid] | 0.004 | 0.025 | –
O=C(O)C(C1CCN(C(=O)Nc2ccc(F)c(C(F)(F)F)c2)CC1)N1CCC(c2c[nH]c3ccccc23)CC1 (stereo not drawn) [Cpd 58, [1-(4-fluoro-3-trifluoromethyl-phenylcarbamoyl)-piperidin-4-yl]-[4-(1H-indol-3-yl)-piperidin-1-yl]-acetic acid] | 0.13 | 0.09 | –
O=C(O)C(C1CCN(C(=O)/C=C/c2ccc(Br)cc2)CC1)N1CCC(c2c[nH]c3ccccc23)CC1 (stereo not drawn) [Cpd 60, {1-[(2E)-3-(4-bromo-phenyl)-acryloyl]-piperidin-4-yl}-[4-(1H-indol-3-yl)-piperidin-1-yl]-acetic acid] | 0.07 | – | –
O=C(O)C(C1CCN(C(=O)/C=C/c2cccc(F)c2)CC1)N1CCC(c2c[nH]c3ccccc23)CC1 (stereo not drawn) [Cpd 62, {1-[(2E)-3-(3-fluoro-phenyl)-acryloyl]-piperidin-4-yl}-[4-(1H-indol-3-yl)-piperidin-1-yl]-acetic acid] | 0.18 | – | –
COc1cccc(/C=C/C(=O)N2CCC(C(C(=O)O)N3CCC(c4c[nH]c5ccccc45)CC3)CC2)c1 (stereo not drawn) [Cpd 72, [4-(1H-indol-3-yl)-piperidin-1-yl]-{1-[(2E)-3-(3-methoxy-phenyl)-acryloyl]-piperidin-4-yl}-acetic acid] | 0.03 | – | –
CS(=O)(=O)Nc1ccc2c(C3CCN(C(C(=O)O)C4CCN(C(=O)/C=C/c5cc(F)c(F)c(F)c5)CC4)CC3)c[nH]c2c1 (stereo not drawn) [Cpd 82] | – | – | 0.21

The next lines start with results.

IC50 (THP-1 cells) [µM] | IC50 (CCR2) [µM] | SMILES | IC50 (THP-1 cells; THP-1, 3 h) [µM]
0.004 | – | O=C(O)C(C1CCN(C(=O)/C=C/c2ccc(Cl)c(Cl)c2)CC1)N1CCC(c2c[nH]c3ccc(F)cc23)CC1 (stereo not drawn) [Cpd 19, {1-[(2E)-3-(3,4-dichloro-phenyl)-acryloyl]-piperidin-4-yl}-[4-(5-fluoro-1H-indol-3-yl)-piperidin-1-yl]-acetic acid] | –
0.004 | – | O=C(O)C(C1CCN(C(=O)/C=C/c2ccc(F)c(F)c2)CC1)N1CCC(c2c[nH]c3ccccc23)CC1 (stereo not drawn) [Cpd 22, {1-[(2E)-3-(3,4-difluoro-phenyl)-acryloyl]-piperidin-4-yl}-[4-(1H-indol-3-yl)-piperidin-1-yl]-acetic acid] | –
0.0007 | 0.01 | O=C(O)C(C1CCN(C(=O)/C=C/c2cc(F)cc(F)c2)CC1)N1CCC(c2c[nH]c3cc(F)ccc23)CC1 (stereo not drawn) [Cpd 24, {1-[(2E)-3-(3,5-difluoro-phenyl)-acryloyl]-piperidin-4-yl}-[4-(6-fluoro-1H-indol-3-yl)-piperidin-1-yl]-acetic acid] | –
0.0004 | 0.024 | CS(=O)(=O)Nc1ccc2[nH]cc(C3CCN(C(C(=O)O)C4CCN(C(=O)/C=C/c5cc(F)cc(F)c5)CC4)CC3)c2c1 (stereo not drawn) [Cpd 29, {1-[(2E)-3-(3,5-difluoro-phenyl)-acryloyl]-piperidin-4-yl}-[4-(5-methanesulfonylamino-1H-indol-3-yl)-piperidin-1-yl]-acetic acid] | –
0.0004 | 0.008 | O=C(O)C(C1CCN(C(=O)/C=C/c2ccc(F)c(Br)c2)CC1)N1CCC(c2c[nH]c3ccccc23)CC1 (stereo not drawn) [Cpd 36, {1-[(2E)-3-(3-bromo-4-fluoro-phenyl)-acryloyl]-piperidin-4-yl}-[4-(1H-indol-3-yl)-piperidin-1-yl]-acetic acid] | –
0.004 | 0.02 | COc1ccc2c(C3CCN(C(C(=O)O)C4CCN(C(=O)/C=C/c5cc(F)cc(F)c5)CC4)CC3)c[nH]c2c1 (stereo not drawn) [Cpd 38, {1-[(2E)-3-(3,5-difluoro-phenyl)-acryloyl]-piperidin-4-yl}-[4-(6-methoxy-1H-indol-3-yl)-piperidin-1-yl]-acetic acid] | –
0.0019 | 0.002 | O=C(O)C(C1CCN(C(=O)/C=C/c2ccc(Cl)c(Cl)c2)CC1)N1CCC(c2c[nH]c3cc(F)ccc23)CC1 (stereo not drawn) [Cpd 39, {1-[(2E)-3-(3,4-dichloro-phenyl)-acryloyl]-piperidin-4-yl}-[4-(6-fluoro-1H-indol-3-yl)-piperidin-1-yl]-acetic acid] | –
0.0008 | – | COc1cccc2c(C3CCN(C(C(=O)O)C4CCN(C(=O)/C=C/c5cc(F)cc(F)c5)CC4)CC3)c[nH]c12 (stereo not drawn) [Cpd 42, {1-[(2E)-3-(3,5-difluoro-phenyl)-acryloyl]-piperidin-4-yl}-[4-(7-methoxy-1H-indol-3-yl)-piperidin-1-yl]-acetic acid] | –
0.0002 | 0.001 | O=C(O)C(C1CCN(C(=O)/C=C/c2ccc(Cl)c(Cl)c2)CC1)N1CCC(c2c[nH]c3cc(Cl)ccc23)CC1 (stereo not drawn) [Cpd 46, [4-(6-chloro-1H-indol-3-yl)-piperidin-1-yl]-{1-[(2E)-3-(3,4-dichloro-phenyl)-acryloyl]-piperidin-4-yl}-acetic acid] | –
0.0002 | 0.01 | COc1ccc2[nH]cc(C3CCN(C(C(=O)O)C4CCN(C(=O)/C=C/c5ccc(Cl)c(Cl)c5)CC4)CC3)c2c1 (stereo not drawn) [Cpd 47, {1-[(2E)-3-(3,4-dichloro-phenyl)-acryloyl]-piperidin-4-yl}-[4-(5-methoxy-1H-indol-3-yl)-piperidin-1-yl]-acetic acid] | –
0.003 | 0.02 | O=C(O)C(C1CCN(C(=O)Nc2ccc(Cl)c(C(F)(F)F)c2)CC1)N1CCC(c2c[nH]c3ccccc23)CC1 (stereo not drawn) [Cpd 57, [1-(4-chloro-3-trifluoromethyl-phenylcarbamoyl)-piperidin-4-yl]-[4-(1H-indol-3-yl)-piperidin-1-yl]-acetic acid] | –
